The supplement of paper PMC8960247
± gives the standard error.

What was measured:
621-103 (TSC2-rescued) = assay: relative viability vs DMSO; higher = less cytotoxic; settings: serum: 10% FBS, 72 h
621-102 (TSC2-deficient) = assay: as above; settings: serum: 10% FBS, 72 h
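Note: immortalized renal angiomyolipoma cells stably carrying empty vector or TSC2, dosed in 384-well plates in DMEM, viability normalized to vehicle-treated wells within each plate.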

| Structure (SMILES) | relative viability (621-103 (TSC2-rescued); 0.0001 µM) [%] | relative viability (621-103 (TSC2-rescued); 0.001 µM) [%] | relative viability (621-103 (TSC2-rescued); 0.01 µM) [%] | relative viability (621-103 (TSC2-rescued); 0.1 µM) [%] | relative viability (621-103 (TSC2-rescued); 1 µM) [%] | relative viability (621-103 (TSC2-rescued); 10 µM) [%] | relative viability (621-102 (TSC2-deficient); 0.0001 µM) [%] | relative viability (621-102 (TSC2-deficient); 0.001 µM) [%] | relative viability (621-102 (TSC2-deficient); 0.01 µM) [%] | relative viability (621-102 (TSC2-deficient); 0.1 µM) [%] | relative viability (621-102 (TSC2-deficient); 1 µM) [%] | relative viability (621-102 (TSC2-deficient); 10 µM) [%] |
| --- | --- | --- | --- | --- | --- | --- | --- | --- | --- | --- | --- | --- |
| CC1=C(C(=O)Nc2cc3cn[nH]c3cc2F)C(c2ccc(C(F)(F)F)cc2)CC(=O)N1 (centres undefined) | 99 ± 0.99 | 98.74 ± 0.16 | 101 ± 3.5 | 101.2 ± 0.43 | 99.79 ± 0.91 | 96.4 ± 2.7 | 121 ± 2.4 | 104 ± 2.5 | 104.73 ± 0.024 | 108 ± 2 | 106 ± 2.2 | 85.826 ± 0.053 |
| CN(C)Cc1ccc(-c2nc3cccc4c3n2CCNC4=O)cc1 | 103.8 ± 0.6 | 101.41 ± 0.034 | 102 ± 1.3 | 105 ± 1.6 | 103 ± 0.17 | 97.7 ± 0.77 | 125 ± 2.7 | 120.04 ± 0.068 | 127 ± 1.8 | 119 ± 5 | 118 ± 2.8 | 110 ± 1.7 |
| CNCc1ccc(-c2[nH]c3cc(F)cc4c3c2CCNC4=O)cc1 | 104 ± 1.2 | 104 ± 1.1 | 104.8 ± 0.35 | 107.6 ± 0.23 | 111 ± 1.2 | 88 ± 1.9 | 130 ± 2.7 | 109 ± 3.2 | 128 ± 4.3 | 126 ± 4 | 120 ± 1.7 | 98.5 ± 1.6 |
| COc1ccc(-c2ccc3c(N4CCOCC4)nc(N4C[C@@H](C)O[C@@H](C)C4)nc3n2)cc1CO | 99.9 ± 3 | 88.657 ± 0.066 | 102.1 ± 0.57 | 104 ± 1.4 | 83.1 ± 2.7 | 41.9 ± 0.85 | 74.3 ± 2.3 | 78 ± 8.3 | 65.8 ± 4.5 | 81.3 ± 2.2 | 70.087 ± 0.057 | 27.6 ± 1.1 |
| COc1cccc(Nc2c(C(N)=O)cnc3c(C)cc(S(=O)(=O)c4cccc(C(=O)N(C)C)c4)cc23)c1 | 104 ± 3.4 | 103.1 ± 0.49 | 102 ± 3.5 | 103.2 ± 0.47 | 95.9 ± 3.8 | 93.3 ± 3.2 | 105 ± 5 | 102 ± 2.6 | 97.2 ± 5.1 | 104 ± 2.7 | 97.1 ± 0.98 | 95.9 ± 2 |
| COc1ncc(-c2ccc3nccc(-c4ccnnc4)c3c2)cc1NS(=O)(=O)c1ccc(F)cc1F | 107 ± 3.9 | 101.89 ± 0.069 | 91 ± 4.4 | 61.4 ± 2.5 | 47.565 ± 0.012 | 41 ± 2.4 | 80.7 ± 11 | 68.1 ± 1.7 | 59.2 ± 0.65 | 38.9 ± 1.5 | 23.3 ± 2 | 26.3 ± 1.8 |
| C[C@@H](Oc1cc(-n2cnc3ccc(CN4CCN(C)CC4)cc32)sc1C(N)=O)c1ccccc1C(F)(F)F | 100 ± 1.7 | 71.9 ± 4.3 | 60.2 ± 0.98 | 48.49 ± 0.29 | 40.7 ± 0.62 | 9.95 ± 0.89 | 97.01 ± 0.82 | 88.1 ± 1.3 | 64.5 ± 3.1 | 45.3 ± 0.63 | 40.7 ± 3.1 | 27.1 ± 3.8 |
| C[C@@H]1CN(CC(=O)Nc2ccc3c(c2)Cc2cccc(-c4cc(=O)cc(N5CCOCC5)o4)c2S3)C[C@H](C)O1 | 79.7 ± 1.1 | 86 ± 3.5 | 83 ± 0.38 | 84.6 ± 1 | 77.8 ± 3.1 | 59.4 ± 5.5 | 101 ± 1.9 | 96.34 ± 0.66 | 96.06 ± 0.86 | 97.1 ± 2.1 | 97.3 ± 1.5 | 65.9 ± 0.85 |
| Cc1ccc(CN2CCNCC2)cc1NC(=O)CNc1ccc(F)c(F)c1 | 113 ± 3.6 | 98.9 ± 2 | 108 ± 3.7 | 102 ± 2.5 | 95.4 ± 2.7 | 90.85 ± 0.73 | 112 ± 2.2 | 98.3 ± 5.5 | 100.6 ± 0.38 | 104 ± 3.2 | 88 ± 1.4 | 92.96 ± 0.19 |
| Cc1cccc(-c2nn3c(c2-c2ccnc4ccc(C(N)=O)cc24)CCC3)n1 | 102.4 ± 0.59 | 93.4 ± 3.5 | 97.8 ± 2.9 | 97.7 ± 2.5 | 99.2 ± 0.91 | 106 ± 1.6 | 97.6 ± 7.5 | 87.2 ± 2 | 95.57 ± 0.43 | 109 ± 5.5 | 96 ± 2.2 | 93.9 ± 4.6 |
| Cc1ccccc1-n1c(Cn2cnc3c(N)ncnc32)nc2cccc(C)c2c1=O | 100.1 ± 0.63 | 100.4 ± 0.26 | 98 ± 1.1 | 100 ± 1.5 | 99.34 ± 0.9 | 96.2 ± 2.4 | 108.5 ± 0.61 | 117.2 ± 0.36 | 118 ± 4 | 116.3 ± 0.6 | 101.3 ± 0.42 | 99.9 ± 0.73 |
| Cn1cc(-c2ccc3nnc(C(F)(F)c4ccc5ncccc5c4)n3n2)cn1 | 102 ± 1.7 | 101 ± 1.4 | 100.6 ± 0.28 | 100.3 ± 0.23 | 100.3 ± 0.95 | 98.25 ± 0.26 | 101 ± 1.6 | 100.8 ± 0.26 | 99.2 ± 1.3 | 95.7 ± 1.9 | 96.8 ± 4.5 | 98.19 ± 0.64 |
| Nc1nc(Nc2ccc(S(N)(=O)=O)cc2)nn1C(=O)c1c(F)cccc1F | 98.71 ± 0.9 | 105 ± 2.8 | 106.4 ± 0.39 | 110 ± 4.5 | 93.5 ± 4.2 | 40.01 ± 0.12 | 107 ± 1.5 | 102.5 ± 0.3 | 107 ± 1.8 | 104 ± 1.3 | 97 ± 1.4 | 49.9 ± 5.8 |
| O=C(c1ccc(F)cc1)N1CCC[C@H](c2nc(-c3ccc(F)cc3)no2)C1 | 102 ± 2.5 | 97.8 ± 7.7 | 100 ± 3.3 | 103 ± 2.4 | 105 ± 0.68 | 108 ± 4.5 | 90.9 ± 4.4 | 89.5 ± 2 | 107 ± 1.4 | 104.7 ± 0.73 | 97.3 ± 4.3 | 89.7 ± 2.8 |
| O=C1NC(=O)/C(=C/c2ccc3nccc(-c4ccncc4)c3c2)S1 | 94.69 ± 0.22 | 101.8 ± 0.76 | 107 ± 2 | 101.5 ± 0.46 | 93.69 ± 0.33 | 33.1 ± 0.64 | 101 ± 3.6 | 106.8 ± 0.82 | 105 ± 5.2 | 97.8 ± 5.1 | 80.5 ± 5 | 32.8 ± 1.8 |
| O=c1cc(-c2cccc3c2Sc2ccccc2S3)oc(N2CCOCC2)c1 | 78.3 ± 1.3 | 90.23 ± 0.51 | 85 ± 3.9 | 82.9 ± 0.99 | 77.06 ± 0.31 | 69.3 ± 3.3 | 101 ± 3 | 99.73 ± 0.79 | 98.3 ± 3.2 | 94.4 ± 1.1 | 100 ± 2.1 | 80.3 ± 0.73 |
| c1ccc2c(CCNc3ccc(Nc4ccncc4)cc3)c[nH]c2c1 | 113.5 ± 1 | 103 ± 1.1 | 103 ± 1.1 | 106 ± 1.8 | 105 ± 2 | 64.7 ± 3.8 | 131 ± 2 | 122 ± 2.9 | 119.8 ± 0.41 | 114 ± 1.4 | 110 ± 6.2 | 68.7 ± 4.9 |
